Values after ≈ are worked out from the molar mass of the structure shown. Residues, ends and D or L forms follow the SMILES beside them.
Legend:
[1] = system: P. aeruginosa 544; assay type: cell-based, Pseudomonas aeruginosa; details: 544, 20 h
Procedure: (§1) Bacterial strains were either purchased from American Type Culture Collection (ATCC, United States) or provided by National University Hospital, Singapore. Prior to assays, all bacteria, except for Enterococcus faecalis, were grown overnight to stationary phase at 37°C in Luria Bertani (LB) broth (Novagen, Germany). The overnight cultures were 10-fold diluted in fresh cation-adjusted Mueller Hinton II broth (MHBII) (Becton Dickinson, United States) and grown for additional few hours at 37°C to obtain mid-log phase culture. E. faecalis strains were grown in M17 broth (Becton Dickenson, United States) for both overnight and mid-log phase culturing. Human keratinocyte cell line, HaCaT, was purchased from Creative Bioarray (United States) and cultured in Dulbecco’s Modified Eagle’s medium with 4.5 g/L glucose, 2 mM L-glutamine, and 10% fetal bovine serum.
(§2) Minimum inhibition concentrations (MICs) were determined by using broth microdilution method in a 96-well microtiter plate according to guidelines of the Clinical and Laboratory Standards Institute ([CLSI, 2012]). Briefly, mid-log phase cultures were diluted with MHBII and added to wells containing serially diluted peptides to give final cell concentration of 5 × 10^5 cells ml^−1. Peptides were prepared in twofold serial dilution series to give a final concentration range from 2 to 128 μM. Cecropin P1 (CECP1) and Cap11-1-18m^2 (CapM2) treated cells were used as positive controls, while untreated cells were used as a negative control.
(§3) To further assess the potency of peptides, wells with no visible growth from MIC tests were subsequently plated on LB agar plates and incubated overnight at 37°C. […] Both MIC and MBC assays were conducted on three to five separate occasions and if results were within one doubling dilutions of each other, the highest reading was recorded for analysis.

[2] = system: E. faecalis VRE; assay type: cell-based, Enterococcus faecalis; details: 20 h
Procedure: as §1, §2, §3

[3] = system: S. aureus 43300; assay type: cell-based, Staphylococcus aureus; details: 43300, 20 h
Procedure: as §1, §2, §3

[4] = system: Enterococcus faecalis SEN; assay type: cell-based; details: 20 h
Procedure: as §1, §2, §3

[5] = system: Escherichia coli 25922; assay type: cell-based; details: 25922, 20 h
Procedure: as §1, §2, §3

[6] = system: Escherichia coli BAA2523; assay type: cell-based; details: BAA2523, 20 h
Procedure: as §1, §2, §3

[7] = system: Pseudomonas aeruginosa 27853; assay type: cell-based; details: 27853, 20 h
Procedure: as §1, §2, §3

[8] = system: Staphylococcus aureus 29213; assay type: cell-based; details: 29213, 20 h
Procedure: as §1, §2, §3

[9] = system: mammalian cells; design: method as in Neo et al., 2016; details: cited from earlier work
[10] = system: panel of antibiotic sensitive and resistant bacteria; assay type: cell-based; details: 20 h
Procedure: as §1, §2, §3

[11] = system: HaCaT human keratinocyte cell line; experiment: Viability assay for mammalian cells (CellTiter-Glo); assay type: cell-based; details: overnight; for cytotoxicity against HaCat cells: 30 μM; for toxicity against HaCaT cells at the highest concentration: 100 μM
Procedure: as §1
HaCat cells (1 × 10^5 cells mL^−1) were seeded in a 96-well clear-bottomed white plate (Corning) in Dulbecco’s Modified Eagle’s medium with 4.5 g/L glucose, 2 mM L-glutamine, and 10% fetal bovine serum and incubated overnight at 37°C. On the following day, cells were treated with the indicated peptides at serial-diluted concentrations and incubated overnight. CellTiter-Glo reagent (Promega) was utilized to determine the cell viability based on the manufacturer’s instructions.

MIC [1] | MIC [2] | MIC [4] | MIC [5] | MIC [6] | MIC [7] | MIC [8] | MIC [3] | Compound | MBC [1] | MBC [2] | MBC [3] | MBC [4] | MBC [5] | MBC [6] | MBC [7] | MBC [8] | cytotoxicity against HaCat cells [11] | toxicity against HaCaT cells at the highest concentration [11] | further results
>128 µM | >128 µM | >128 µM | >128 µM | >128 µM | >128 µM | 128 µM (≈ 301 µg/mL) | – | CC(C)C[C@H](NC(=O)[C@@H](N)CCC(N)=O)C(=O)NCC(=O)N[C@@H](CCCCN)C(=O)N[C@@H](CCCCN)C(=O)N[C@@H](CCCCN)C(=O)N[C@@H](Cc1c[nH]cn1)C(=O)N[C@@H](CCCNC(=N)N)C(=O)N[C@@H](CCCNC(=N)N)C(=O)N[C@@H](CCCNC(=N)N)C(=O)N1CCC[C@H]1C(=O)N[C@@H](CO)C(=O)N[C@@H](CCCCN)C(=O)N[C@@H](CCCCN)C(=O)N[C@@H](CCCCN)C(=O)N[C@@H](CCCNC(=N)N)C(=O)N[C@@H](Cc1c[nH]cn1)C(=O)N[C@@H](Cc1c[nH]c2ccccc12)C(=O)O [BR] (H-QLGKKKHRRRPSKKKRHW-OH) | >128 µM | >128 µM | >128 µM | >128 µM | >128 µM | >128 µM | >128 µM | >128 µM | – | – | cytotoxic effects on mammalian cells [9]: failed to cause any detectable cytotoxic effects
– | 16 µM (≈ 40.4 µg/mL) | 32 µM (≈ 80.7 µg/mL) | 64 µM (≈ 161 µg/mL) | >128 µM | >128 µM | 32 µM (≈ 80.7 µg/mL) | 16 µM (≈ 40.4 µg/mL) | CC(C)C[C@H](NC(=O)[C@@H](N)CCC(N)=O)C(=O)NCC(=O)N[C@@H](CCCNC(=N)N)C(=O)N[C@@H](CCCNC(=N)N)C(=O)N[C@@H](CCCNC(=N)N)C(=O)N[C@@H](Cc1c[nH]cn1)C(=O)N[C@@H](CCCNC(=N)N)C(=O)N[C@@H](CCCNC(=N)N)C(=O)N[C@@H](CCCNC(=N)N)C(=O)N1CCC[C@H]1C(=O)N[C@@H](CO)C(=O)N[C@@H](CCCNC(=N)N)C(=O)N[C@@H](CCCNC(=N)N)C(=O)N[C@@H](CCCNC(=N)N)C(=O)N[C@@H](CCCNC(=N)N)C(=O)N[C@@H](Cc1c[nH]cn1)C(=O)N[C@@H](Cc1c[nH]c2ccccc12)C(=O)O [BR-RRR12] (H-QLGRRRHRRRPSRRRRHW-OH) | >128 µM | >128 µM | – | >128 µM | 64 µM (≈ 161 µg/mL) | >128 µM | >128 µM | >128 µM | – | – | MICs (range over inhibited strains) [10]: 16 to 64 µM
16 µM (≈ 37.4 µg/mL) | 16 µM (≈ 37.4 µg/mL) | 16 µM (≈ 37.4 µg/mL) | 16 µM (≈ 37.4 µg/mL) | 32 µM (≈ 74.8 µg/mL) | 16 µM (≈ 37.4 µg/mL) | 16 µM (≈ 37.4 µg/mL) | 16 µM (≈ 37.4 µg/mL) | CC[C@H](C)[C@H](NC(=O)[C@H](CC(C)C)NC(=O)[C@H](CCCCN)NC(=O)[C@H](CC(C)C)NC(=O)[C@H](CC(C)C)NC(=O)[C@H](CCCCN)NC(=O)[C@H](CCCNC(=N)N)NC(=O)[C@H](Cc1ccccc1)NC(=O)[C@H](CC(C)C)NC(=O)[C@H](CCCCN)NC(=O)[C@H](CCCNC(=N)N)NC(=O)[C@H](CC(C)C)NC(=O)[C@@H](N)CCCCN)C(=O)N[C@@H](CCCNC(=N)N)C(=O)N[C@@H](CCCCN)C(=O)N[C@@H](CC(C)C)C(=O)N[C@@H](CC(C)C)C(=O)N[C@@H](CCCNC(=N)N)C(=O)O [CapM2, Cap11-1-18m^2, reference compound] (H-KLRKLFRKLLKLIRKLLR-OH) | 32 µM (≈ 74.8 µg/mL) | 16 µM (≈ 37.4 µg/mL) | 16 µM (≈ 37.4 µg/mL) | 16 µM (≈ 37.4 µg/mL) | 32 µM (≈ 74.8 µg/mL) | 64 µM (≈ 150 µg/mL) | 32 µM (≈ 74.8 µg/mL) | 32 µM (≈ 74.8 µg/mL) | – | – | –
16 µM (≈ 53.4 µg/mL) | >128 µM | >128 µM | 4 µM (≈ 13.4 µg/mL) | 64 µM (≈ 214 µg/mL) | 16 µM (≈ 53.4 µg/mL) | >128 µM | >128 µM | CC[C@H](C)[C@H](NC(=O)CNC(=O)[C@H](CCC(=O)O)NC(=O)[C@H](CO)NC(=O)[C@@H](NC(=O)[C@H](CCCNC(=N)N)NC(=O)[C@H](CCCCN)NC(=O)[C@H](CCCCN)NC(=O)[C@H](C)NC(=O)[C@H](CO)NC(=O)[C@H](CC(N)=O)NC(=O)[C@H](CCC(=O)O)NC(=O)[C@H](CC(C)C)NC(=O)[C@H](CCCCN)NC(=O)[C@H](CCCCN)NC(=O)[C@H](C)NC(=O)[C@@H](NC(=O)[C@H](CCCCN)NC(=O)[C@H](CO)NC(=O)[C@H](CC(C)C)NC(=O)[C@H](Cc1c[nH]c2ccccc12)NC(=O)[C@@H](N)CO)[C@@H](C)O)[C@@H](C)CC)C(=O)N[C@@H](C)C(=O)N[C@H](C(=O)N[C@@H](C)C(=O)N[C@H](C(=O)N[C@@H](CCC(N)=O)C(=O)NCC(=O)NCC(=O)N1CCC[C@H]1C(=O)N[C@@H](CCCNC(=N)N)C(=O)O)[C@@H](C)CC)[C@@H](C)CC [CECP1, Cecropin P1, reference compound] (H-SWLSKTAKKLENSAKKRISEGIAIAIQGGPR-OH) | 32 µM (≈ 107 µg/mL) | >128 µM | >128 µM | >128 µM | 4 µM (≈ 13.4 µg/mL) | 64 µM (≈ 214 µg/mL) | 32 µM (≈ 107 µg/mL) | >128 µM | – | – | –
– | – | – | – | – | – | – | – | CC[C@H](C)[C@H](NC(=O)[C@H](CCCCN)NC(=O)[C@@H](NC(=O)[C@H](CCC(N)=O)NC(=O)[C@@H](N)CCCNC(=N)N)[C@@H](C)CC)C(=O)N[C@@H](Cc1c[nH]c2ccccc12)C(=O)N[C@@H](Cc1ccccc1)C(=O)N[C@@H](CCC(N)=O)C(=O)N[C@@H](CC(N)=O)C(=O)N[C@@H](CCCNC(=N)N)C(=O)N[C@@H](CCCNC(=N)N)C(=O)N[C@@H](Cc1c[nH]c2ccccc12)C(=O)NCC(=O)NCC(=O)N[C@@H](CCC(N)=O)C(=O)N[C@@H](CC(C)C)C(=O)NCC(=O)N[C@@H](CCCCN)C(=O)N[C@@H](CCCCN)C(=O)N[C@@H](CCCCN)C(=O)N[C@@H](Cc1c[nH]cn1)C(=O)N[C@@H](CCCNC(=N)N)C(=O)N[C@@H](CCCNC(=N)N)C(=O)N[C@@H](CCCNC(=N)N)C(=O)N1CCC[C@H]1C(=O)N[C@@H](CO)C(=O)N[C@@H](CCCCN)C(=O)N[C@@H](CCCCN)C(=O)N[C@@H](CCCCN)C(=O)N[C@@H](CCCNC(=N)N)C(=O)N[C@@H](Cc1c[nH]cn1)C(=O)N[C@@H](Cc1c[nH]c2ccccc12)C(=O)O [Pen-BR] (H-RQIKIWFQNRRWGGQLGKKKHRRRPSKKKRHW-OH) | – | – | – | – | – | – | – | – | little or no cytotoxicity | toxic activity | effect on HaCaT cells under lower concentrations ([11]; below 100 μM (10, 30, 50 μM)): did not cause any significant effects
– | – | – | – | – | – | – | – | CC[C@H](C)[C@H](NC(=O)[C@H](CCCCN)NC(=O)[C@@H](NC(=O)[C@H](CCC(N)=O)NC(=O)[C@@H](N)CCCNC(=N)N)[C@@H](C)CC)C(=O)N[C@@H](Cc1c[nH]c2ccccc12)C(=O)N[C@@H](Cc1ccccc1)C(=O)N[C@@H](CCC(N)=O)C(=O)N[C@@H](CC(N)=O)C(=O)N[C@@H](CCCNC(=N)N)C(=O)N[C@@H](CCCNC(=N)N)C(=O)N[C@@H](Cc1c[nH]c2ccccc12)C(=O)NCC(=O)NCC(=O)N[C@@H](CCC(N)=O)C(=O)N[C@@H](CC(C)C)C(=O)NCC(=O)N[C@@H](CCCNC(=N)N)C(=O)N[C@@H](CCCNC(=N)N)C(=O)N[C@@H](CCCNC(=N)N)C(=O)N[C@@H](Cc1c[nH]cn1)C(=O)N[C@@H](CCCNC(=N)N)C(=O)N[C@@H](CCCNC(=N)N)C(=O)N[C@@H](CCCNC(=N)N)C(=O)N1CCC[C@H]1C(=O)N[C@@H](CO)C(=O)N[C@@H](CCCNC(=N)N)C(=O)N[C@@H](CCCNC(=N)N)C(=O)N[C@@H](CCCNC(=N)N)C(=O)N[C@@H](CCCNC(=N)N)C(=O)N[C@@H](Cc1c[nH]cn1)C(=O)N[C@@H](Cc1c[nH]c2ccccc12)C(=O)O [Pen-RRR] (H-RQIKIWFQNRRWGGQLGRRRHRRRPSRRRRHW-OH) | – | – | – | – | – | – | – | – | little or no cytotoxicity | toxic activity | –
